The conditions of data set [1]: cited from earlier work.
Data set [2] can be described thus: Pharmacokinetics of clopidogrel and its metabolites with and without ritonavir. It is filed as in vivo, human. As to conditions: for C max / AUC0‐4h / AUC0‐∞ / t ½ / t max: after clopidogrel 300 mg oral; for C max / AUC0‐4h / AUC0‐∞ / t ½ / Clopidogrel active metabolite: clopidogrel AUC0‐∞ ratio: geometric mean (geometric CV); for t max: median (range).
The mark [3] stands for this setting: clopidogrel and ritonavir phase.

Turning to `COC(=O)[C@H](c1ccccc1Cl)N1CC[C@@H](S)/C(=C\C(=O)O)C1` [Clopidogrel active metabolite], in data set [1], the “decrease of AUC by ketoconazole” value is 22–29%. For the same compound, the C max in data set [2] (clopidogrel and ritonavir phase (ritonavir 100 mg twice daily)) is reported as 6.77 (140) ng/mL. In addition, in data set [2] (setting [3]), the “AUC0‐4h” value was 9.16 (150) ng·h/mL, the “AUC0‐∞” value is listed as 14.9 (170) ng·h/mL, the “t ½” value is on record as 0.89 (90) h and the t max is 0.92 (0.92–1.5) h. Besides, the “Clopidogrel active metabolite: clopidogrel AUC0‐∞ ratio” value in data set [2] (setting [3]) was 1.83 (200). Moreover, in data set [2] (clopidogrel phase), the “AUC0‐4h” value is reported as 18.7 (77) ng·h/mL, the “AUC0‐∞” value is 19.3 (79) ng·h/mL, the C max is 13.0 (72) ng/mL and the “t ½” value was 1.05 (58) h. Moreover, in data set [2] (clopidogrel phase), the t max is on record as 0.92 (0.92–1.5) h and the “Clopidogrel active metabolite: clopidogrel AUC0‐∞ ratio” value is on record as 1.79 (110). In data set [2] (geometric mean), the “AUC0‐4h in clopidogrel–ritonavir phase as % of that in the clopidogrel phase” value came out at 49% and the “C max in clopidogrel–ritonavir phase as % of that in the clopidogrel phase” value came to 52%. Also, in data set [2] (geometric mean ratio (90% CI)), the “AUC0‐4h, clopidogrel and ritonavir phase to clopidogrel phase ratio” value is reported as 0.49 (0.39–0.61); P = 0.0001; the “AUC0‐∞, clopidogrel and ritonavir phase to clopidogrel phase ratio” value is recorded as 0.77 (0.59–1.00); the “C max, clopidogrel and ritonavir phase to clopidogrel phase ratio” value was 0.52 (0.41–0.65); P = 0.0003; the “Clopidogrel active metabolite: clopidogrel AUC0‐∞ ratio, clopidogrel and ritonavir phase to clopidogrel phase ratio” value is given as 1.03 (0.53–1.97). For the same compound, the “t ½, clopidogrel and ritonavir phase to clopidogrel phase ratio” value in data set [2] (geometric mean ratio (90% CI)) was 0.85 (0.66–1.08).

Values taken from article PMC6585621 (Clinical Pharmacology and Therapeutics, 2018).
